Tests used:
[1] = biological target: FTase (Homo sapiens, UniProt P49354+P49356); settings: cited from earlier work
[2] = tested on: H-ras; settings: cited from earlier work
[3] = tested on: Rap1A; settings: cited from earlier work; for inhibition of Rap1A processing: whole cells
[4] = tested on: wild type c-H-ras; assay: Western blot of ras farnesylation in untransformed REF and MR4 cells; assay type: cell-based, rat; settings: MR4 cells
Description: (§1) The oncogene-transfected cells used in this study were all derived from early passage rat embryo fibroblast (REF) by transfection with the pEJ plasmid containing the H-ras gene isolated from the EJ bladder carcinoma. This vector was introduced by calcium phosphate DNA transfer into primary REF, either alone or together with the pMC29 vector containing v-myc. One clone containing both the introduced H-ras gene and the v-myc genes is 3.7 (McKenna et al., 1990, Cancer Res. 50:97-102). 4R and 5R cells were obtained as rare transformants after transfection with the pEJ plasmid alone (McKenna et al., 1993, supra). MR4 cells were immortalized by transfection with an expression vector comprising v-myc linked to a neomycin-resistant selectable marker (McKenna et al., 1991, Radiat. Res. 125:283-287). REF-GG cells were obtained by transforming REF cells with a chimeric H-ras(v12) in which the CAAX motif is CVLL. All cell lines were mycoplasma free.
(§2) Cells were lysed in culture dishes with 1 x reducing Laemmli sample buffer. Samples were boiled, sheared and clarified by centrifugation at 14,000 rpm in a microfuge before storage at −20° C. Samples containing equal amounts of protein were separated on a 12% SDS polyacrylamide gel and electrophoretically transferred to nitrocellulose membranes. Membranes were blocked for 1-2 hours in PBS containing 0.1% Tween-20 and 5% powdered milk before antibody addition. Membranes were probed with monoclonal pan-ras antibody AB-4 (Oncogene Science, Uniondale, N.Y.) at a concentration of 0.5 μg/ml, or with monoclonal H-ras antibody LA069 (1:5000 dilution; Quality Biotech, Camden, N.J.). Detection of protein was accomplished using the ECL chemiluminescence kit (Amersham, Arlington Heights, Ill.). Images were digitized using an Arcus II scanner, and figures were assembled using Adobe Photoshop 3.0.

[5] = tested on: H-ras^v12; assay: Western blot of H-ras farnesylation in H-ras transformed REF cells (3.7, 4R, 5R); assay type: cell-based, rat; settings: 5R cells, dose of 32 μM
Description: as §1, §2
Transformed REF cells derived from the R5 cell line were treated with 5 μm FTI-277 to establish a time course for the accumulation of unfarnesylated H-ras. Prenylated forms of ras migrate more rapidly than unprenylated ras on SDSpolyacrylamide gels (Gutierrez et al., 1989, EMBO J. 8:1093-1098; Farh et al., 1995, Arch. Biochem. Biophys. 18:113-121). This shift in motility was used to assess the prenylation status of H-ras after farnesyltransferase inhibitor treatment.

[6] = tested on: H-ras^v12 CVLL; assay: Western blot of prenylation of chimeric H-ras in REF-GG cells; assay type: cell-based, rat; settings: 24 hours, preliminary results
Description: as §1
Cells were lysed in culture dishes with 1 x reducing Laemmli sample buffer. Samples were boiled, sheared and clarified by centrifugation at 14,000 rpm in a microfuge before storage at −20° C. Samples containing equal amounts of protein were separated on a 12% SDS polyacrylamide gel and electrophoretically transferred to nitrocellulose membranes. […]

[7] = biological target: GGTase I (Homo sapiens, UniProt P49354+P53609); settings: cited from earlier work
[8] = tested on: REF-GG cells; assay: SF2 by limiting dilution analysis of clonogens; assay type: cell-based, rat; settings: 8 μM GGTI-298
Method: FIG. 14B comprises two graphs depicting clonogenic survival of REF-GG cells following treatment with GGTI-298 and irradiation. REF-GG cells were plated at 1 to 5 cells per well in microtiter plates in the absence (top panel) or presence (bottom panel) of 8 μM of the geranylgeranyltransferase inhibitor, GGTI-298. Cells were then irradiated with 2 Gray or were mock irradiated. Cells were re-fed after 24 hours with medium that contained no inhibitor, thus diluting the inhibitor to 0.8 μM. These cells were then incubated for two weeks prior to scoring for colony formation. The data are presented as the natural log of the fraction of negative wells. The surviving fraction at 2 Gray was determined from the differences in the slopes obtained by linear regression of analysis of irradiated and unirradiated cells. The surviving fraction at 2 Gray calculated for cells irradiated after GGTI-298 treatment was 0.64. Control cell surviving fraction after 2 Gray was 0.91. The correlation coefficient for linear regression analysis (r^2) was greater than 0.95 in all cases.
Cells were irradiated with the indicated doses of ionizing radiation and were treated with FTI-277 for 24 hours after irradiation (FIG. 14A). […] The shoulders of the survival curves were reduced as were the overall slopes of the survival curves. […]

[9] = tested on: K-ras; assay: Western blot of K-ras prenylation in SW480 and Panc-1 cells; assay type: cell-based, human; settings: 8 μM GGTI-298 alone
Method: FIG. 17A is an image of a Western blot depicting inhibition by FTI-277 of K-ras prenylation in human SW480 colon carcinoma cells. SW480 cells were treated with the indicated concentrations of FTI-277 (μM) for 48 hours. Samples were harvested and cell lysates were analyzed by Western blotting using either a H-ras monoclonal antibody (top) or a K-ras monoclonal antibody (bottom). Arrows indicate unfarnesylated ras bands.
FIG. 18A is an image of a Western blot depicting the specific inhibition of K-ras prenylation by combined FTI-277 and GGTI-298 treatment. Log phase cultures of human pancreatic carcinoma cells (Panc-1) and colon carcinoma cells (SW480) were treated with 5 μM FTI and 8 μM GGTI 298 for 48 hours. Cell samples were then harvested and cell lysates were prepared for Western blot analysis using monoclonal antibodies to K-ras and nuclear lamin B. The electrophoretic mobility of the K-ras mutant in SW480 is slower than that of the mutant K-ras in Panc-1 cells.

2-hydroxyfarnesylphosphonic acid
FTase inhibition [1]: inhibit FTase
H-Ras processing [2]: inhibits H-Ras processing

COC(=O)[C@H](CCSC)NC(=O)[C@H](/C=C\[C@@H](/C=C/[C@@H](N)CS)C(C)C)Cc1ccccc1 [B1086]
FTase inhibition [1]: capable of inhibiting FTase

CSCC[C@H](NC(=O)c1ccc(NC[C@@H](N)CS)cc1)C(=O)O [FTI-249]
FTase inhibition [1]: potent FTase inhibitor

CSCC[C@H](NC(=O)c1ccc(NC[C@@H](N)CS)cc1-c1ccccc1)C(=O)O [FTI-276]
FTase inhibition [1]: inhibited Ftase activity

COC(=O)[C@H](CC(C)C)NC(=O)c1ccc(NC[C@@H](N)CS)cc1-c1ccccc1 [GGTI-286]
inhibition of Rap1A processing [3]: potent inhibitor of posttranslational processing of Rap1A
migration of endogenous wild-type c-H-ras [4]: no effect on the migration of this protein
inhibition of farnesylated H-ras^v12 (CVLS) [5]: only partially inhibited
lowest dose with effective inhibition of geranylgeranylation of chimeric H-ras^v12 [6]: 4 µM

CC(C)C[C@H](NC(=O)c1ccc(NC[C@@H](N)CS)cc1-c1ccccc1)C(=O)O [GGTI-287]
increase in potency of inhibition of GGTase I ([7]; relative to GGTI-279): 20 fold
increase in potency of inhibition of FTase ([1]; relative to GGTI-279): 20 fold

CC(C)C[C@H](NC(=O)c1ccc(NC[C@@H](N)CS)cc1-c1cccc2ccccc12)C(=O)O [GGTI-297]
GGTase I inhibition [7]: inhibitors of GGTase I and FTase
potency, less potent than GGTI-287 [7]: 10 fold
selectivity for GGTase I over FTase ([7]; in vitro): 5 fold
FTase inhibition [1]: inhibitors of GGTase I and FTase

COC(=O)[C@H](CC(C)C)NC(=O)c1ccc(NC[C@@H](N)CS)cc1-c1cccc2ccccc12 [GGTI-298]
Rap1A protein processing ([3]; concentration of 10 μM): completely inhibiting Rap1A protein processing
inhibition of Rap1A processing [3]: as potent as GGTI-286
SF2 (surviving fraction at 2 Gray) [8]: 0.64
prenylation of K-ras [9]: no effect on prenylation of K-ras
GGTase I inhibition [7]: inhibitors of GGTase I and FTase
FTase inhibition [1]: inhibitors of GGTase I and FTase
H-ras processing ([2]; concentration of 10 μM): without affecting H-ras processing

CC[C@H](C)[C@@H](CO[C@@H](Cc1ccccc1)C(=O)N[C@@H](CCS(C)(=O)=O)C(=O)OC)NC[C@@H](N)CS [L-739,749]
FTase inhibition [1]: very potent inhibitors of FTase

CC[C@H](C)[C@@H](CO[C@@H](Cc1ccccc1)C(=O)N[C@@H](CCS(C)(=O)=O)C(=O)O)NC[C@@H](N)CS [L-739,750]
FTase inhibition [1]: very potent inhibitors of FTase

CC[C@H](C)[C@@H](CO[C@@H](Cc1ccccc1)C(=O)N[C@@H](CCS(C)(=O)=O)C(=O)OC(C)C)NC[C@@H](N)CS [L-744,832]
farnesylation of endogenous H-ras ([4]; highest dose used): less susceptible to farnesylation inhibition

COCC[C@@H]1CN(C(=O)c2cccc3ccccc23)CCN1C[C@H](N)CS [L-745,631]
mode of FTase inhibition [1]: competitive with respect to H-Ras binding to FTase
FTase activity in whole cells ([2]; whole cells): inhibits FTase activity in whole cells

O=C(Cc1ccncc1)N1CCC(=C2c3ccc(Cl)cc3CCc3cccnc32)CC1 [SCH-44342]
mode of FTase inhibition [1]: competitive inhibitor of FTase

(bz-(0)-His-Tyr-Ser [PD-15169]
FTase inhibition [1]: inhibits FTase activity

farnesylmethyl-hydroxyphosphinylmethyl phosphoric acid
FTase inhibition [1]: inhibit FTase

Reference: patent US20020034725A1, “SENSITIZATION OF CELLS TO RADIATION AND AND CHEMOTHERAPY” (priority 1996, published 2002)
